From the supplement of paper PMC10307832

Key:
Assay in all cases: relative viability (nuclei count vs DMSO), 5 days (fraction); higher = more cells survive
NCI-H441 = tested on: NCI-H441
Procedure, shortened: (§1)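 Relative viability divides the nuclei count in treated wells by that in vehicle wells. Lung cancer cell lines were seeded in 1536-well plates, dosed by pin tool the next day, and fixed and stained after 5 days in one step with final 0.05% Triton X-100, 1% formaldehyde and 1 ug/ml Hoechst. Dosing was a single drug or a fixed anchor-drug dose plus five library-drug doses (not always all listed) in √10 steps, and values are medians of duplicate plates imaged at 4×.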

NCI-H460 = tested on: NCI-H460
Procedure, shortened: as §1

NCI-H520 = tested on: NCI-H520
Procedure, shortened: as §1

NCI-H522 = tested on: NCI-H522
Procedure, shortened: as §1

NCI-H596 = tested on: NCI-H596
Procedure, shortened: as §1

NCI-H661 = tested on: NCI-H661
Procedure, shortened: as §1

NCI-H727 = tested on: NCI-H727
Procedure, shortened: as §1

PC-14 = tested on: PC-14
Procedure, shortened: as §1

RERF-LC-KJ = tested on: RERF-LC-KJ
Procedure, shortened: as §1

SK-MES-1 = tested on: SK-MES-1
Procedure, shortened: as §1

SW 900 = tested on: SW 900
Procedure, shortened: as §1

For `Cc1sc2c(c1C)C(c1ccc(Cl)cc1)=N[C@@H](CC(=O)OC(C)(C)C)c1nnc(C)n1-2` [JQ1] + Nc1ncn([C@H]2C[C@H](O)[C@@H](CO)O2)c(=O)n1 [Decitabine] (partner 2 µM), the relative viability (NCI-H441; first compound 1.265 µM) was 0.152, the relative viability (NCI-H441; first compound 4 µM) was 0.17 and the relative viability (NCI-H460; first compound 0.04 µM) was 0.488. The relative viability (NCI-H460; first compound 0.1265 µM) was 0.344, the relative viability (NCI-H460; first compound 0.4 µM) was 0.296 and the relative viability (NCI-H460; first compound 1.265 µM) was 0.165. For the same compound, the relative viability (NCI-H460; first compound 4 µM) was 0.226, the relative viability (NCI-H520; first compound 0.04 µM) was 0.52 and the relative viability (NCI-H520; first compound 0.1265 µM) was 0.561. The relative viability (NCI-H520; first compound 0.4 µM) was 0.443, the relative viability (NCI-H520; first compound 1.265 µM) was 0.349 and the relative viability (NCI-H520; first compound 4 µM) was 0.355. It also gave a relative viability (NCI-H522; first compound 0.04 µM) of 0.656, a relative viability (NCI-H522; first compound 0.1265 µM) of 0.635 and a relative viability (NCI-H522; first compound 0.4 µM) of 0.661. It also gave a relative viability (NCI-H522; first compound 1.265 µM) of 0.473, a relative viability (NCI-H522; first compound 4 µM) of 0.501 and a relative viability (NCI-H596; first compound 0.04 µM) of 1.04. It also gave a relative viability (NCI-H596; first compound 0.1265 µM) of 0.978, a relative viability (NCI-H596; first compound 0.4 µM) of 0.679 and a relative viability (NCI-H596; first compound 1.265 µM) of 0.611. The relative viability (NCI-H596; first compound 4 µM) was 0.62, the relative viability (NCI-H661; first compound 0.04 µM) was 0.505 and the relative viability (NCI-H661; first compound 0.1265 µM) was 0.47. It also gave a relative viability (NCI-H661; first compound 0.4 µM) of 0.527, a relative viability (NCI-H661; first compound 1.265 µM) of 0.475 and a relative viability (NCI-H661; first compound 4 µM) of 0.492. The relative viability (NCI-H727; first compound 0.04 µM) was 1, the relative viability (NCI-H727; first compound 0.1265 µM) was 0.877 and the relative viability (NCI-H727; first compound 0.4 µM) was 0.506. It also gave a relative viability (NCI-H727; first compound 1.265 µM) of 0.597, a relative viability (NCI-H727; first compound 4 µM) of 0.649 and a relative viability (PC-14; first compound 0.04 µM) of 0.188. For the same compound, the relative viability (PC-14; first compound 0.1265 µM) was 0.19, the relative viability (PC-14; first compound 0.4 µM) was 0.185 and the relative viability (PC-14; first compound 1.265 µM) was 0.0999. It also gave a relative viability (PC-14; first compound 4 µM) of 0.117, a relative viability (RERF-LC-KJ; first compound 0.04 µM) of 0.648 and a relative viability (RERF-LC-KJ; first compound 0.1265 µM) of 0.532. It also gave a relative viability (RERF-LC-KJ; first compound 0.4 µM) of 0.56, a relative viability (RERF-LC-KJ; first compound 1.265 µM) of 0.333 and a relative viability (RERF-LC-KJ; first compound 4 µM) of 0.235. It also gave a relative viability (SK-MES-1; first compound 0.04 µM) of 0.347, a relative viability (SK-MES-1; first compound 0.1265 µM) of 0.385 and a relative viability (SK-MES-1; first compound 0.4 µM) of 0.315. It also gave a relative viability (SK-MES-1; first compound 1.265 µM) of 0.194, a relative viability (SK-MES-1; first compound 4 µM) of 0.216 and a relative viability (SW 900; first compound 0.04 µM) of 0.431. It also gave a relative viability (SW 900; first compound 0.1265 µM) of 0.472, a relative viability (SW 900; first compound 0.4 µM) of 0.426 and a relative viability (SW 900; first compound 1.265 µM) of 0.307. The relative viability (SW 900; first compound 4 µM) was 0.235.
